Results on 15 compounds are retold here after patent US20250206759A1, “FUSED RING COMPOUND, PHARMACEUTICAL COMPOSITION CONTAINING SAME, AND USE OF FUSED RING COMPOUND” (CHENGDU HYPERWAY PHARMACEUTICALS CO., LTD., priority 2022, published 2025).

Read-outs that look alike come from different tables or passages of the source.

The test system of data set [1] is ASPC-1 cells. Description: 3D cell proliferation inhibition test (CellTiter-Glo), ASPC-1 cells. It counts as cell-based. The following applies: 7 days, read-out: ASPC-1 cells 3D CTG IC50. The protocol: (§1) The diluted compounds to be tested were added to 384-well low-adhesion cell culture plates by using a nanoliter pipetting system (LABCYTE, P-0200). Then, the cells were plated and incubated in a 37° C., […] incubator for 7 days. Afterward, CellTiter-Glo® […] reagent was added, and the luminescent values were read by an Envision multifunctional microplate reader (the luminescent signal is proportional to the amount of ATP in the system, and the ATP content directly represents the number of viable cells in the system). Finally, the IC50 values (half-maximal inhibitory concentration) of the compounds were obtained by the XLFIT software using the nonlinear fitting formula.
(§2) a) The diluted compounds to be tested were added to 384-well low-adsorption cell culture plates by using a nanoliter pipetting system.
(§3) b) Cells were seeded into the 384-well plates in a) and then centrifuged at 1000 rpm for 1 min at room temperature, with a final DMSO concentration of compound being 0.5%. The plates were then incubated in a 37° C., 5% CO2 constant temperature incubator for 7 days.
(§4) c) CellTiter-Glo® 3D was added to the 384-well cell culture plates in b), shaken in the dark, and incubated at room temperature.
(§5) d) The luminescence values were read by using an Envision multifunctional microplate reader.
(§6) The IC50 (half-maximal inhibitory concentration) values of the compounds were obtained by using XLFIT software according to the following nonlinear fitting formula:
(§7) [formula] • X: log value of compound concentration. • Y: inhibition rate (%)
(§8) Inhibition rate (%)=100×(average value of negative control−compound)/(average value of negative control−average value of positive control)
(§9) Positive control: Medium only.

Data set [2] relates to GP2d cells. Description: 3D cell proliferation inhibition test (CellTiter-Glo), GP2d cells. Format: cell-based. The following applies: 7 days, read-out: GP2d cells 3D CTG IC50. The method, then:
as §1, §2, §3, §4, §5, §6, §7, §8, §9

Data set [3] can be described thus: Pharmacokinetics of compounds in rats (oral). It counts as in vivo, SD rats. The following applies: for AUC / Cmax: male SD rats. The protocol:
Male SD rats were purchased from Shanghai SIPPR-Bk Lab Animal Co., Ltd. Each test compound was administered orally (3 rats per group) once to SD rats for pharmacokinetic study. The test compounds were prepared on the day of administration. The test compounds were suspended in 5% DMSO+95% saline, and then vortexed for 2 min and ultrasonicated for 5 min to prepare the administration system. The animals were fasted for 10-14 h before oral administration, and the feeding was resumed 4 h after administration. After oral administration by gavage, pharmacokinetic samples were collected from SD rats through the jugular vein. The collection time points were: before administration, 15 min, 30 min, 1 h, 2 h, 4 h, 6 h, 8 h and 24 h after administration. Three whole blood samples were collected at each time point, with a collection volume of about 0.2 mL, and anticoagulated with sodium heparin. After blood samples were collected, they were immediately placed on ice and centrifuged to separate plasma within 1 hour (centrifugation conditions: 6800 rpm, 6 min, 2-8° C.). The collected plasma was stored in a −80° C. refrigerator before analysis.

In data set [4] the test system is KRas G12D-mediated ERK phosphorylation. As to the kind of experiment: Inhibition of KRas G12D-mediated ERK phosphorylation in AGS cells. It counts as cell-based. The following applies: read-out: AGS-pERK IC50. The protocol:
Day 1: AGS cells were seeded into 384-well cell culture plates and cultured overnight in a 37° C., 5% CO2 incubator.
Day 2: The compounds were added to the plates using Echo550 and incubated for 3 h in a 37° C., 5% CO2 incubator. Then cells were fixed with paraformaldehyde, permeated with methanol, and blocked with the blocking solution. Finally, a mixed solution of primary antibodies (rabbit anti pERK, mouse anti GAPDH) was added, and the mixture was incubated at 4° C. overnight.
Day 3: The mixed solution of primary antibodies was discarded, and a mixed solution of secondary antibodies (goat anti rabbit 800CW, goat anti mouse 680RD) was added. The mixture was incubated at room temperature in the dark. Finally, the cell culture plate was washed with PBST, and then inverted for 1 minute of centrifugation. The fluorescence signal values were read with Odyssey CLx.
ERK phosphorylation was calculated according to the following formula: […]
X: log value of compound concentration.
Y: average value of relative expression of p-ERK between replicate wells.

Where [5] appears, read: male, SD, rat, plasma, po, 100 mg/kg, 100 mg/kg, read-out: AUC.
Setting [6] is: male, SD, rat, plasma, po, 100 mg/kg, 100 mg/kg, read-out: Cmax.

Regarding `Nc1cc(Cl)c(C(F)(F)F)c(-c2ncc3c(N4C[C@H]5CC[C@@H](C4)N5)nc(OCC45CCCN4C(c4ccc6c(c4)OC(F)(F)O6)CC5)nc3c2F)c1` (stereo partly drawn) [Example 161, 3-(4-((1R,5S)-3,8-diazabicyclo[3.2.1]octan-3-yl)-2-((3-(2,2-difluorobenzo[d][1,3]dioxy-5-yl)tetrahydro-1H-pyrrolizin-7a(5H)-yl)methoxy)-8-fluoropyridin[4,3-d]pyrimidin-7-yl)-5-chloro-4-(trifluoromethyl) aniline], in data set [1], the 50% inhibitory concentration (IC50) amounted to 46.9 nM. Besides, the IC50 in data set [2] amounted to 10.9 nM. Further, in data set [3] (100 mg/kg), the AUC is 1080 ng·h/mL and the maximum concentration (Cmax) is 193 ng/mL.
`Oc1cc(-c2ncc3c(N4CC5CCC(C4)N5)nc(OCC45CCCN4[C@@H](c4cc(F)c(F)c(F)c4)CC5)nc3c2F)c2c(F)c(F)ccc2c1` (single isomer, unassigned) [Example 223]: the IC50 was 3.09 nM in data set [1] (Homo sapiens, ASPC1, 168 h); 0.74 nM in data set [4]; 0.67 nM in data set [2] (168 h). The compound also yielded an area under the curve (AUC) in data set [3] (100 mg/kg) of 404 ng·h/mL. The Cmax in data set [3] (100 mg/kg) was 260 ng/mL.
For `Oc1cc(-c2ncc3c(N4CC5CCC(C4)N5)nc(OCC45CCCN4[C@@H](c4ccc(C(F)(F)F)c(F)c4)CC5)nc3c2F)c2c(F)c(F)ccc2c1` (mixture of isomers) [Example 225], the IC50 in data set [1] (Homo sapiens, ASPC1, 168 h) is 11.1 nM; in data set [4] (Homo sapiens, AGS), 1.5 nM; in data set [2] (168 h) it was 1.49 nM. Besides, the exposure (AUC) in data set [3] (setting [5]) came out at 380 ng·h/mL. The highest concentration (Cmax) in data set [3] (setting [6]) worked out at 54 ng/mL.
For the compound `CC1(C)OC(C)(C)c2cc(C3CCC4(COc5nc(N6C[C@H]7CC[C@@H](C6)N7)c6cnc(-c7cc(O)cc8ccccc78)c(F)c6n5)CCCN34)ccc21` (stereo partly drawn) [Example 149, 4-(4-((1R,5S)-3,8-diazabicyclo[3.2.1]octan-3-yl)-8-fluoro-2-((3-(1,1,3,3-tetramethyl-1,3-dihydroisobenzofuran-5-yl)tetrahydro-1H-pyrrolizin-7a(5H)-yl)methoxy)pyrido[4,3d]pyrimidin-7-yl)naphthalen-2-ol], the IC50 in data set [4] came to 23 nM. In data set [3] (100 mg/kg), this compound yielded an area under the curve (AUC) of 1192 ng·h/mL and a Cmax of 148 ng/mL.
Turning to `Oc1cc(-c2ncc3c(N4C[C@H]5CC[C@@H](C4)N5)nc(OCC45CCCN4C(c4ccc6c(c4)OC(F)(F)O6)CC5)nc3c2F)c2c(F)c(F)ccc2c1` (stereo partly drawn) [Example 142, 4-(4-((1R,5S)-3,8-diazabicyclo[3.2.1]octan-3-yl)-2-((3-(2,2-difluorobenzo[d][1,3]dioxy-5-yl)tetrahydro-1H-pyrrolizin-7a(5H)-yl)methoxy)-8-fluoropyrido[4,3d]pyrimidin-7-yl)-5,6-difluoronaphthalen-2-ol], the 50% inhibitory concentration (IC50) in data set [1] was found to be 13.9 nM; in data set [4], 0.83 nM; in data set [2], 1.15 nM. The compound further returned an area under the curve (AUC) in data set [3] (100 mg/kg) of 404 ng·h/mL. The compound further registered a Cmax in data set [3] (100 mg/kg) of 96 ng/mL.
Regarding `CC1(C)OC(C)(C)c2cc([C@H]3CCC4(COc5nc(N6CC7CCC(C6)N7)c6cnc(-c7cc(O)cc8ccc(F)c(F)c78)c(F)c6n5)CCCN34)ccc21` (single isomer, unassigned) [Example 198], the half-maximal inhibitory concentration (IC50) in data set [4] (Homo sapiens, AGS) was 0.72 nM. The AUC in data set [3] (setting [5]) came to 219 ng·h/mL. The Cmax in data set [3] (setting [6]) is 141 ng/mL.
Turning to `Oc1cc(-c2ncc3c(N4CC5CCC(C4)N5)nc(OCC45CCCN4[C@@H](c4ccc(Cl)c(Cl)c4)CC5)nc3c2F)c2c(F)c(F)ccc2c1` (mixture of isomers) [Example 220], the concentration for half-maximal inhibition (IC50) in data set [4] (Homo sapiens, AGS) amounted to 3.2 nM. For the same compound, in data set [3] (setting [5]), the AUC worked out at 140 ng·h/mL. Moreover, the Cmax in data set [3] (setting [6]) worked out at 38 ng/mL.
In the case of `Oc1cc(-c2ncc3c(N4CC5CCC(C4)N5)nc(OCC45CCCN4C(c4ccc6c(c4)COCC6)CC5)nc3c2F)c2c(F)c(F)ccc2c1` (centres unmarked) [Example 187], the IC50 in data set [4] (Homo sapiens, AGS) came to 13 nM. The AUC in data set [3] (setting [5]) turned out to be 567 ng·h/mL. Moreover, in data set [3] (setting [6]), the peak concentration (Cmax) worked out at 109 ng/mL.
Regarding `C#Cc1c(F)ccc2cc(O)cc(-c3ncc4c(N5CC6CCC(C5)N6)nc(OC[C@@]56CCCN5C[C@H](F)C6)nc4c3F)c12` [MRTX1133, reference compound], the figures for the half-maximal inhibitory concentration (IC50) in data set [1], in data set [4] and in data set [2] were 10.9 nM, 1.2 nM and 1.38 nM, respectively. Besides, in data set [3] (SD rats), the “oral pharmacokinetics (Cmax and AUC)” value is recorded as “extremely poor”. Also, the exposure (AUC) entry was “No parameter” in data set [3] (10 mg/kg) and 70 ng·h/mL in data set [3] (100 mg/kg). The maximum concentration (Cmax) in data set [3] (10 mg/kg) is 1 to 2 ng/mL; in data set [3] (100 mg/kg), 26 ng/mL.
For “4-(4-((1R,5S)-3,8-diazabicyclo[3.2.1]octan-3-yl)-8-fluoro-2-((3-(4-methoxyphenyl)tetrahydro-1H-pyrrolidin-7a(5H)-yl)methoxy)pyrido[4,3-d]pyrimidin-7-yl)-5,6-difluoronaphthalen-2-ol [Example 34]”, the IC50 in data set [4] is 27 nM. In data set [3] (10 mg/kg), this compound showed an area under the curve (AUC) of 75 ng·h/mL and a Cmax of 25 ng/mL.
Take `C#Cc1c(F)ccc2cc(O)cc(-c3ncc4c(N5CC6CCC(C5)N6)nc(OCC56CCCN5C(c5ccc7c(c5)C5CCC7O5)CC6)nc4c3F)c12` (centres unmarked) [Example 192]: the concentration for half-maximal inhibition (IC50) stood at 12.2 nM in data set [1] (Homo sapiens, ASPC1, 168 h); 1.8 nM in data set [4] (Homo sapiens, AGS); 3.51 nM in data set [2] (168 h). In addition, the exposure (AUC) in data set [3] (setting [5]) was found to be 284 ng·h/mL. Besides, the Cmax in data set [3] (setting [6]) stood at 96 ng/mL.
In the case of `Oc1cc(-c2ncc3c(N4CC5CCC(C4)N5)nc(OCC45CCCN4[C@@H](c4cc(F)c(F)c(F)c4)CC5)nc3c2F)c2c(F)c(F)ccc2c1` (mixture of isomers) [Example 222], the 50% inhibitory concentration (IC50) in data set [4] (Homo sapiens, AGS) was 1.1 nM. The Cmax in data set [3] (100 mg/kg) amounted to 82 ng/mL. The AUC in data set [3] (setting [5]) was 258 ng·h/mL.
Consider `CC1(C)OCc2ccc(C3CCC4(COc5nc(N6CC7CCC(C6)N7)c6cnc(-c7cc(O)cc8ccc(F)c(F)c78)c(F)c6n5)CCCN34)cc21` [Example 156, 4-(4-((1R,5S)-3,8-diazabicyclo[3.2.1]octan-3-yl)-2-((3-(3,3-dimethyl-1,3-dihydroisobenzofuran-5-yl)tetrahydro-1H-pyrrolizin-7a(5H)-yl)methoxy)-8-fluoropyridin[4,3-d]pyrimidin-7-yl)-5,6-difluoronaphthalen-2-ol], for which the concentration for half-maximal inhibition (IC50) in data set [4] (Homo sapiens, AGS) worked out at 15 nM. The AUC in data set [3] (setting [5]) worked out at 598 ng·h/mL. Moreover, in data set [3] (setting [6]), the maximum concentration (Cmax) stood at 138 ng/mL.
For the compound `CC1(C)OC(C)(C)c2cc([C@H]3CCC4(COc5nc(N6CC7CCC(C6)N7)c6cnc(-c7cc(O)cc8ccc(F)c(F)c78)c(F)c6n5)CCCN34)ccc21` (mixture of isomers) [Example 211], the half-maximal inhibitory concentration (IC50) in data set [4] was 0.96 nM. For the same compound, in data set [3] (100 mg/kg), the area under the curve (AUC) is 225 ng·h/mL and the Cmax came out at 97 ng/mL.
For `Oc1cc(-c2ncc3c(N4C[C@H]5CC[C@@H](C4)N5)nc(OCC45CCCN4C(c4ccc6c(c4)C4CCC6O4)CC5)nc3c2F)c2c(F)c(F)ccc2c1` (stereo partly drawn) [Example 153, 4-(4-((1R,5S)-3,8-diazabicyclo[3.2.1]octan-3-yl)-8-fluoro-2-((3-(1,2,3,4-tetrahydro-1,4-epoxynaphthalen-6-yl)tetrahydro-1H-pyrrolizin-7a(5H)-yl)methoxy)pyrido[4,3d]pyrimidin-7-yl)-5,6-difluoronaphthalen-2-ol], the 50% inhibitory concentration (IC50) in data set [4] was found to be 5.2 nM. In data set [3] (100 mg/kg), this compound showed an AUC of 458 ng·h/mL and a Cmax of 156 ng/mL.

What is called IC50 is the concentration at which inhibition is half-maximal. A word on the AUC: it is the area under the concentration-time curve, a measure of exposure. The Cmax is the highest concentration seen after dosing.
